These results are taken from patent US10800788B2, “4-(aryl)-N-(3-alkoxyfuro[2,3-b]pyrazin-2-yl)-piperazine-1-carboxamide derivative and antiproliferative effect thereof” (Dongguk University Industry-Academic Cooperation Foundation, priority 2016, dated 2020).

What is called IC50 is the concentration that inhibits the measured activity by half.

Experiment [1] has as its system PANC-1 (pancreatic cancer) cell line. As to the kind of experiment: Cell growth inhibition experiment (SRB), PANC-1. Format: cell-based. Conditions: Homo sapiens, PANC-1, 96 h, 96 hours incubation. The procedure, abridged: (§1)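 Cells in DMEM with 10% FBS were seeded at 2 to 3×10^3 cells/well, dosed the next day and incubated 96 hours at 37° C, 5% CO2. After TCA fixation and sulforhodamine B staining, OD530 was converted to viable cell number with a per-line standard curve. % survival is test over control; triplicate runs.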

Experiment [2] deals with HEK293. As to the kind of experiment: Cell growth inhibition experiment (SRB), HEK293. The settings on record: Homo sapiens, HEK293, 96 h, 96 hours incubation, read-out: IC50 (μM) for cancer cell line HEK293. Format: cell-based, human. The method, boiled down:
(§2)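 Cells seeded at 2 to 3×10^3 cells/well, grown overnight, then exposed to compound for 96 hours in triplicate. Growth measured by SRB staining with absorbance at 530 nm; OD530 converted to viable cell number via each line's standard curve, survival expressed relative to untreated control.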

The test system of experiment [3] is HT29. As to the kind of experiment: Cell growth inhibition experiment (SRB), HT29. Conditions: Homo sapiens, HT-29, 96 h, 96 hours incubation, read-out: IC50 (μM) for cancer cell line HT29. Format: cell-based, human. The method, boiled down: as §2
Experiment [4] concerns SK-OV-3. As to the kind of experiment: Cell growth inhibition experiment (SRB), SK-OV-3. In kind it is cell-based, human. Conditions: Homo sapiens, SK-OV-3, 96 h, 96 hours incubation, read-out: IC50 (μM) for cancer cell line SK-OV-3. The method, boiled down: as §2
In experiment [5] the test system is A549. Nature of the experiment: Cell growth inhibition experiment (SRB), A549. Format: cell-based. Conditions: Homo sapiens, A549, 96 h, 96 hours incubation, read-out: IC50 (μM) for cancer cell line A549. The procedure, abridged:
as §2

The test system of experiment [6] is UMRC2 (kidney cancer) cell line. Nature of the experiment: Cell growth inhibition experiment (SRB), UMRC2. Conditions: Homo sapiens, UMRC2, 96 h, 96 hours incubation. Format: cell-based, human. The procedure, abridged: as §1
For experiment [7], the system named is HUVEC. Nature of the experiment: Cell growth inhibition experiment (SRB), HUVEC. In kind it is cell-based, human. Conditions: Homo sapiens, HUVEC, 96 h, 96 hours incubation, read-out: IC50 (μM) […]. The procedure, abridged:
as §2

Experiment [8] deals with MDA-MB-231 (breast cancer) cell line. As to the kind of experiment: Cell growth inhibition experiment (SRB), MDA-MB-231. Format: cell-based, human. The settings on record: Homo sapiens, MDA-MB-231, 96 h, 96 hours incubation. The method, boiled down:
as §1

Experiment [9] has as its system HN31 (head and neck cancer) cell line. As to the kind of experiment: Cell growth inhibition experiment (SRB), HN31. In kind it is cell-based, human. The settings on record: Homo sapiens, 96 h, 96 hours incubation. The method, boiled down:
as §1

`CCOc1nc2oc(C)cc2nc1NC(=O)N1CCN(c2cc(F)cc(C(F)(F)F)c2)CC1` [Example 38, N-(3-Ethoxy-6-methylfuro[2,3-b]pyrazin-2-yl)-4-(3-fluoro-5-(trifluoromethyl)phenyl)piperazine-1-carboxamide]: the IC50 in experiment [1], in [2], in experiment [3], in experiment [4], in experiment [5] and in [6] was less than 2.5 µM throughout. Also, the IC50 in [7], in experiment [8] and in experiment [9] was less than 2.5 µM in each case.

`CCOc1nc2oc(C)cc2nc1NC(=O)N1CCN(c2cc(F)cc(OC)c2)CC1` [Example 33, N-(3-Ethoxy-6-methylfuro[2,3-b]pyrazin-2-yl)-4-(3-fluoro-5-methoxyphenyl)piperazine-1-carboxamide]: the IC50 was 0.24 µM in [1]; 0.51 µM in experiment [2]; less than 2.5 µM in [3]; less than 2.5 µM in [4]; 0.41 µM in [5]; 0.21 µM in experiment [6]. Also, the IC50 in experiment [7] is less than 2.5 µM; in [8], 0.15 µM; in experiment [9], 0.31 µM.

Regarding `CCOc1nc2occc2nc1NC(=O)N1CCN(c2cc(OC)cc(OCCN(C)C)c2)CC1` [Example 14, 4-(3-(2-(Dimethylamino)ethoxy)-5-methoxyphenyl)-N-(3-ethoxyfuro[2,3-b]pyrazin-2-yl)piperazine-1-carboxamide], the concentration for half-maximal inhibition (IC50) is 1.23 µM in experiment [1]; less than 2.5 µM in experiment [2]; less than 2.5 µM in [3]; less than 2.5 µM in [4]; 1.85 µM in experiment [5]; 0.68 µM in experiment [6]. The results for the IC50 in experiment [7], in experiment [8] and in experiment [9] were less than 2.5 µM, 0.34 µM and 0.65 µM, respectively.

On to `CCOc1nc2occc2nc1NC(=O)N1CCN(c2cc(F)cc(C(F)(F)F)c2)CC1` [Example 18, N-(3-Ethoxyfuro[2,3-b]pyrazin-2-yl)-4-(3-fluoro-5-(trifluoromethyl)phenyl)piperazine-1-carboxamide], for which the half-inhibitory concentration (IC50) was less than 2.5 µM in [1]; less than 2.5 µM in experiment [2]; less than 2.5 µM in experiment [3]; less than 2.5 µM in [4]; less than 2.5 µM in [5]; 0.24 µM in experiment [6]. The figures for the IC50 in [7], in experiment [8] and in [9] were less than 2.5 µM, 0.44 µM and less than 2.5 µM, respectively.

As for `COc1nc2oc(C)cc2nc1NC(=O)N1CCN(c2cccc(OC(F)(F)F)c2)CC1` [Example 30, N-(3-Methoxy-6-methylfuro[2,3-b]pyrazin-2-yl)-4-(3-(trifluoromethoxy)phenyl)piperazine-1-carboxamide], the IC50 in experiment [1] was 0.54 µM; in experiment [2] it was 0.58 µM; in experiment [3], 1.12 µM; in [4], 1.12 µM; in experiment [5], 0.25 µM; in experiment [6], 0.63 µM. Moreover, the concentration for half-maximal inhibition (IC50) stood at 1.12 µM in [7], 0.68 µM in experiment [8] and 1.32 µM in experiment [9].

`CCOc1nc2oc(C)cc2nc1NC(=O)N1CCN(c2cc(C)cc(C)c2)CC1` [Example 35, 4-(3,5-Dimethylphenyl)-N-(3-ethoxy-6-methylfuro[2,3-b]pyrazin-2-yl)piperazine-1-carboxamide]: the IC50 in [1] is 0.43 µM; in experiment [2], 1.12 µM; in experiment [3], less than 2.5 µM; in [4], less than 2.5 µM; in experiment [5] it was 1.02 µM; in [6] it was 0.54 µM. Also, the concentration for half-maximal inhibition (IC50) in experiment [7] is less than 2.5 µM; in experiment [8], 0.24 µM; in [9], 0.44 µM.

Turning to `CCOc1nc2oc(Cl)cc2nc1NC(=O)N1CCN(c2cc(OC)cc(OC)c2)CC1` [Example 51, N-(6-Chloro-3-ethoxyfuro[2,3-b]pyrazin-2-yl)-4-(3,5-dimethoxyphenyl)piperazine-1-carboxamide], the IC50 in [1] is 1.58 µM; in experiment [2], less than 2.5 µM; in experiment [3], less than 2.5 µM; in experiment [4], less than 2.5 µM; in experiment [5], less than 2.5 µM; in [6], 1.68 µM. In addition, the IC50 is less than 2.5 µM in experiment [7], 0.32 µM in experiment [8] and 1.45 µM in experiment [9].

For `COc1nc2oc(C)cc2nc1NC(=O)N1CCN(c2cc(F)cc(C(F)(F)F)c2)CC1` [Example 28, 4-(3-Fluoro-5-(trifluoromethyl)phenyl)-N-(3-methoxy-6-methylfuro[2,3-b]pyrazin-2-yl)piperazine-1-carboxamide], the half-inhibitory concentration (IC50) in experiment [1], in experiment [2], in [3], in [4], in experiment [5] and in experiment [6] was less than 2.5 µM throughout. For the same compound, the IC50 in experiment [7], in experiment [8] and in experiment [9] was less than 2.5 µM throughout.

For the compound `COc1nc2oc(C)cc2nc1NC(=O)N1CCN(c2cc(C(F)(F)F)cc(C(F)(F)F)c2)CC1` [Example 29, 4-(3,5-Bis(trifluoromethyl)phenyl)-N-(3-methoxy-6-methylfuro[2,3-b]pyrazin-2-yl)piperazine-1-carboxamide], the IC50 in [1], in experiment [2], in experiment [3], in [4], in experiment [5] and in experiment [6] was less than 2.5 µM throughout. In addition, the IC50 in [7], in experiment [8] and in [9] was less than 2.5 µM each time.

Turning to `COc1nc2oc(Cl)cc2nc1NC(=O)N1CCN(c2cc(C(F)(F)F)cc(C(F)(F)F)c2)CC1` [Example 49, 4-(3,5-Bis(trifluoromethyl)phenyl)-N-(6-chloro-3-methoxy-furo[2,3-b]pyrazin-2-yl)piperazine-1-carboxamide], the 50% inhibitory concentration (IC50) in experiment [1] is 1.68 µM; in experiment [2] it was less than 2.5 µM; in experiment [3], less than 2.5 µM; in experiment [4] it was less than 2.5 µM; in experiment [5], less than 2.5 µM; in experiment [6], 1.03 µM. The IC50 in experiment [7] is less than 2.5 µM; in experiment [8], 0.32 µM; in [9] it was 1.17 µM.

For `COc1nc2occc2nc1NC(=O)N1CCN(c2cc(C)cc(C)c2)CC1` [Example 5, 4-(3,5-Dimethylphenyl)-N-(3-methoxyfuro[2,3-b]pyrazin-2-yl)piperazine-1-carboxamide], the IC50 in experiment [1] is 1.32 µM; in experiment [2], less than 2.5 µM; in [3] it was less than 2.5 µM; in experiment [4], less than 2.5 µM; in experiment [5] it was less than 2.5 µM; in experiment [6] it was 1.72 µM. The 50% inhibitory concentration (IC50) in experiment [7] is less than 2.5 µM; in experiment [8] it was 1.12 µM; in experiment [9], 2.35 µM.

Turning to `COc1nc2oc(Cl)cc2nc1NC(=O)N1CCN(c2cccc(OC(F)(F)F)c2)CC1` [Example 50, N-(6-Chloro-3-methoxy-furo[2,3-b]pyrazin-2-yl)-4-(3-(trifluoromethoxy)phenyl)piperazine-1-carboxamide], the IC50 in experiment [1], in experiment [2], in experiment [3], in experiment [4], in experiment [5] and in experiment [6] was less than 2.5 µM throughout. In addition, the IC50 in [7], in [8] and in experiment [9] was less than 2.5 µM each time.
